This note sets out measurements from US9243225B2, “Methods of obtaining cell populations enriched with desired cells” (HADASIT MEDICAL RESEARCH SERVICES & DEVELOPMENT LIMITED, priority 2010, dated 2016).

The test system of experiment [1] is tumor-forming cells in transplanted hESC-derived cell preparations. Kind of experiment: Transplantation of paclitaxel-treated differentiated hESC into 6-OH dopamine-lesioned (Parkinsonian) rats. The class given is in vivo, rat. Here is the method: 6-Hydroxydopamine (8 μg/rat) was stereotaxically injected (in a 4 μL solution) into the right substantia nigra of male Sprague-Dawley rats weighing 250-280 g; coordinates of injection: P=4.8, L=1.7, H=−8.6 from bregma. Fourteen days after 6-hydroxydopamine injection, rats were selected for transplantation if they had >350 rotations per hour after s.c. injection of apomorphine ([…]) (apomorphine being injected after 14 days) and, if 2 days later (after apomorphine injection) they also had >360 (mean 520±38) rotations per hour after i.p. injection of D-amphetamine (4 mg/kg).
Two to five days later (after the D-amphetamine injection), differentiated hESC that were induced according to the above specified protocols, either paclitaxel-treated or control-treated (DMSO), were detached with collagenase and were transplanted, 400,000 cells in 12 μL/animal along two tracts per striatum (coordinates: antero-medial tract, A=1, L=2, H=−7.5 to −4; posterio-lateral tract, A−P=0, L=3.5, H=−7.5 to −4.5). All rats received daily i.p. injections of 10 mg cyclosporine A per kg (Sandimmune; Novartis, Basel, Switzerland).
Rats were euthanized by overdose of pentobarbital and perfused with 4% paraformaldehyde saline. Serial 8 μm coronal frozen sections were prepared. […]

The test system of experiment [2] is hES1-derived mixed culture of neurons, neural precursors/progenitors (NPs) and undifferentiated cells. The experiment is described as follows: Paclitaxel treatment of hESC-derived differentiating neural cultures (morphology, immunostaining). The class given is cell-based, human. How it is done:
hES1 colonies grown on HFF feeders in DMEM supplemented with knockout (KO) serum replacement, PenStrep, non-essential amino-acids and glutamine (Invitrogen, USA), were enzymatically detached by collagenase. Intact colonies were transferred to non-adhesive culture plates to form neurospheres in NSC medium (DMEM-F12 medium, N2, B27, PenStrep and Glutamine) supplemented with noggin (Peprotech Asia, Rehovot, Israel) and 20 ng/ml bFGF. Spheres were grown for 3-5 weeks in suspension, collected, triturated and plated on 10 μg laminin/poly-D-lysine-coated coverslips in NSC medium supplemented with FGF8 and SHH for 6-8-days. At this stage, cells were treated with the appropriate concentrations of paclitaxel for 18-24 hours. Paclitaxel was then removed and cells were allowed to recuperate and continue with the differentiation process for additional 6-8 days in NSC medium with BDNF, GDNF, TGFβ3, NT4, cAMP, ascorbic acid.
Alternatively, cells at the end of the differentiation process—the cells are grown as spheres in suspension for 3-5 weeks and 2 more weeks as adherent culture: 1 week FGF8/SHH+1 week factors) are subjected to paclitaxel treatment.
Paclitaxel was added to cells at 2 ranges of concentrations of 0.2-20 nM and 100-500 nM. Cells are incubated at 37° C., in 5% CO2, 5% O2. Incubation times vary between 2 hours and 48 hours.

Regarding `CC(=O)O[C@H]1C(=O)[C@@]2(C)[C@H]([C@H](OC(=O)c3ccccc3)[C@]3(O)C[C@H](OC(=O)[C@H](O)[C@@H](NC(=O)c4ccccc4)c4ccccc4)C(C)=C1C3(C)C)[C@]1(OC(C)=O)CO[C@@H]1C[C@@H]2O` [paclitaxel], the “tumor development after transplantation of treated cells” value in experiment [1] (cell preparations treated with 20-50 nM paclitaxel, 9 animals, 5-8 weeks post transplantation, all 6 controls with untreated cells developed large tumors) is reported as “none developed tumors”. Moreover, in experiment [1] (grafted cells marked by human nuclear antigen in rat striatum, FIGS. 4A-4C), the “tyrosine hydroxylase (dopaminergic marker) expression of grafted paclitaxel-treated cells” value is “express tyrosine hydroxylase”. The “effect on mature cells with typical neuronal morphology” value in experiment [2] (after treatment with paclitaxel, FIG. 1C) is reported as “unaffected by the treatment”. The “effect on undifferentiated cells and early neural progenitors that form rosette structures” value in experiment [2] (after treatment with paclitaxel, FIGS. 1A-1C) is reported as “undergo apoptosis”. In experiment [2] (mixed culture of neurons and NPs after paclitaxel treatment, FIG. 2C), the “β-III tubulin expressing cells (neuronal marker) in culture” value is reported as “enriched for β-III tubulin expressing cells”. The “nestin-positive cells (NP marker) in culture” value in experiment [2] (mixed culture of neurons and NPs after paclitaxel treatment, FIG. 2D) is listed as “reduced number of nestin-positive cells”.
